Measured values: the supplement of paper PMC10307832

How the values were obtained:
Experiment in all cases: relative viability (nuclei count vs DMSO), 5 days (fraction); higher = more cells survive
[1] = compound: C1CC(C2=C(C1)C3=C(N2)C=CC(=C3)Cl)C(=O)N [Selisistat] + CC(C)C[C@H](NC(=O)[C@H](Cc1ccccc1)NC(=O)c1cnccn1)B(O)O [Bortezomib] (partner 0.002 µM)
How it was run: (§1)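 The day after seeding in 1536-well plates, lung cancer cell lines were treated by pin tool with a single drug, or with a fixed anchor-drug dose together with five library-drug doses (not always all listed) in √10 steps. After 5 days, a combined fix-and-stain solution (final 0.05% Triton X-100, 1% formaldehyde, 1 ug/ml Hoechst) was added. Nuclei counted on 4× images gave relative viability as treated counts over vehicle counts, reported as the median of duplicate plates.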

[2] = compound: C1CC(C2=C(C1)C3=C(N2)C=CC(=C3)Cl)C(=O)N [Selisistat] + O=C(CCCCCCC(=O)Nc1ccccc1)NO [Vorinostat] (partner 1 µM)
How it was run: as §1

[3] = compound: c1ccc2c(CCNc3ccc(Nc4ccncc4)cc3)c[nH]c2c1 [Serdemetan] + N=C(N)NC(=N)NCCc1ccccc1 [Phenformin] (partner 250 µM)
How it was run: as §1

[4] = compound: c1ccc2c(CCNc3ccc(Nc4ccncc4)cc3)c[nH]c2c1 [Serdemetan] + NC(=O)Nc1cc(-c2cccc(F)c2)sc1C(=O)N[C@H]1CCCNC1 [AZD7762] (partner 0.2 µM)
How it was run: as §1

Cell Line	relative viability ([1]; first compound 0.4 µM)	relative viability ([1]; first compound 1.265 µM)	relative viability ([1]; first compound 4 µM)	relative viability ([1]; first compound 12.65 µM)	relative viability ([1]; first compound 40 µM)	relative viability ([2]; first compound 0.4 µM)	relative viability ([2]; first compound 1.265 µM)	relative viability ([2]; first compound 12.65 µM)	relative viability ([2]; first compound 40 µM)	relative viability ([3]; first compound 0.04 µM)	relative viability ([3]; first compound 0.1265 µM)	relative viability ([3]; first compound 0.4 µM)	relative viability ([3]; first compound 1.265 µM)	relative viability ([3]; first compound 4 µM)	relative viability ([4]; first compound 0.04 µM)	relative viability ([4]; first compound 0.1265 µM)	relative viability ([4]; first compound 0.4 µM)	relative viability ([4]; first compound 1.265 µM)	relative viability ([4]; first compound 4 µM)	relative viability ([2]; first compound 4 µM)
A-427	1.02	0.981	1.01	1.02	0.952	0.905	0.934	0.881	0.875	0.29	0.279	0.273	0.189	0.198	0.759	0.671	0.664	0.538	0.495	
LCLC-97TM1	0.696	0.77		0.555	0.553	0.646	0.72	0.597	0.75	0.455	0.382	0.463		0.41	0.304	0.232	0.255	0.184	0.211	
LCLC-103H	1.15	1.03	0.979	1.14	1.09	0.824	0.908	0.803	0.953	0.336	0.352	0.343	0.349	0.322	0.788	0.79	0.763	0.759	0.812	0.747
PC-3 [JPC-3]	0.796	0.788	0.828	0.81	0.885	0.899	0.979	0.748	0.691	0.475	0.494	0.486	0.482	0.532	0.823	0.759	0.802	0.591	0.71	
BEN	0.888	0.984	0.492	0.73	0.609	0.625	0.663	0.636	0.657	0.283	0.252	0.271		0.267	0.75	0.545	0.662	0.556	0.641	0.545
NCI-H1666	1.07	0.797	0.612	0.739	0.547	1.09	1.13	1.13	1.17	0.55	0.557	0.535	0.529	0.412	0.812	0.721	0.731	0.691	0.634	1.11
LC-2-ad	1	1.02	1.03	0.985	1.05	0.769	0.704	0.806	0.764	0.559	0.589	0.556	0.496	0.579	0.806	0.836	0.791	0.737	0.709	0.774
ChaGo-K-1	0.972	1.03		0.917	0.821	0.72	0.728	0.729	0.842	0.48	0.484	0.458	0.216	0.25	0.876	0.801	0.75	0.507	0.545	0.73
NCI-H1975	0.434	0.339	0.33	0.354	0.388	0.734	0.731	0.687	0.691	0.401	0.416	0.427		0.415	0.635	0.769	0.717	0.769	0.72	0.752
NCI-H1993	1.22	1.18		1.25	1.23	0.969	0.782	0.848	0.949	0.516	0.539	0.596	0.454	0.532	0.789	0.897	0.588	0.778	0.726	
RERF-LC-KJ	1.18	1.02	0.974	1	1.05	0.665	0.759	0.763	0.708	0.349	0.507	0.389	0.404	0.399	1.03	0.547	0.806	0.897	0.94	0.731
NCI-H23	1.02	1.11		1.1	1.08	0.647	0.597	0.663	0.802	0.855	0.752	0.887	0.56	0.746	0.274	0.235	0.261		0.208	
HCC-366	1.07	1.02	0.955	0.98	1.02	0.464	0.434	0.441	0.384	0.665	0.627	0.547	0.0583	0.0869	0.124	0.0954	0.0688	0.0374	0.0632	0.57
EMC-BAC-2	1.08	1.05	1.01	1.05	1.04	0.487	0.515	0.12	0.12	0.527	0.543	0.514	0.382	0.494	1.08	1.1	1.07	0.955	0.827	0.0984
NCI-H2405	0.985	0.932	0.854	0.997	0.88	1.07	1.19	0.975	0.927	0.317	0.406	0.366	0.344	0.381	0.747	0.721	0.721	0.683	0.625	
EPLC-272H	0.933	0.985		0.859	0.893	0.453	0.729	0.529	0.693	0.344	0.295	0.301	0.278	0.294	0.245	0.217	0.221	0.221	0.215	0.52
NCI-H1915	1.03	0.943	0.953	1.02	1	0.494	0.538	0.538	0.641	0.38	0.358	0.359	0.318	0.334	0.685	0.656	0.763	0.536	0.503	0.661
